These are literature values, as cited in patent US20210228408A1, “Glaucoma Treatment Via Intracameral Ocular Implants” (Allergan, Inc., priority 2015, published 2021).

For series [1], the target named is prostaglandin F (FP) receptor (Homo sapiens, UniProt P43088). The settings on record: read-out: Most potent measured EC50 on FP receptor.
Series [2] deals with Cloned Human Ciliary Body FP Prostaglandin Receptor (Homo sapiens, UniProt P43088). The settings on record: read-out: Functional Potency, EC50.
Cloned Human Ciliary Body FP Prostaglandin Receptor, sequence (P43088 whole entry): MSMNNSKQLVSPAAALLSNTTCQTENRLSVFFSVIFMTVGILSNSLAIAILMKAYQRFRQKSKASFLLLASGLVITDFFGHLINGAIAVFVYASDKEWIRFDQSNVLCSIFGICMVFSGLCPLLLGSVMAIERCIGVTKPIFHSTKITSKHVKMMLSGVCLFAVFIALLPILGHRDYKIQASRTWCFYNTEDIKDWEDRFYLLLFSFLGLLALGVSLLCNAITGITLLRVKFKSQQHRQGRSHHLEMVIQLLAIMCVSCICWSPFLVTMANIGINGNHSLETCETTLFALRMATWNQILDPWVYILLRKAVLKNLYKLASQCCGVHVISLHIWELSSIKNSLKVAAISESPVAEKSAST

The structures appear in SMILES notation.

prostaglandin F (FP) receptor, sequence (P43088 whole entry): as above

Regarding `O=C(O)CCC/C=C\C[C@@H]1[C@@H](/C=C/[C@@H](O)CCc2ccccc2)[C@H](O)C[C@@H]1O` [Bimatoprost acid], the EC50 (in general, the concentration at which the effect is half-maximal) in series [1] was roughly 3.3 nM; in series [2], 5.8 nM.

Take `O=C(O)CCC/C=C\C[C@@H]1[C@@H](/C=C/[C@@H](O)COc2cccc(C(F)(F)F)c2)[C@H](O)C[C@@H]1O` [Travoprost acid]: the EC50 in series [1] is 1.4 nM; in series [2], 3.2 nM.

`CC(C)OC(=O)CCC/C=C\C[C@@H]1[C@@H](/C=C/[C@@H](O)COc2cccc(C(F)(F)F)c2)[C@H](O)C[C@@H]1O` [Travoprost, propan-2-yl 7-[3,5-dihydroxy-2-[3-hydroxy-4-[3-(trifluoromethyl)phenoxy]-but-1-enyl]-cyclopentyl]hept-5-enoate]: the EC50 in series [1] is roughly 1.4 nM.
